Laboratory results as given in patent US20100204150A1, “USE OF A PEPTIDE AS A THERAPEUTIC AGENT” (priority 2007, published 2010).
Where no end group is shown, it is not given here. [ ]: non-standard residue; d: D form.

Test system: drug-resistant Mycobacterium tuberculosis
Test: Mycobacterium tuberculosis assay
Type: cell-based
Details: 10 micrograms per ml; seven days; strain resistant to PAS, streptomycin and INH; combination 0.95:1.05 mole and all ratios 1:100 to 100:1

| Substance | inhibition of the growth of Mycobacterium tuberculosis [%] |
| --- | --- |
| HPFHL[dL]VY-OH [Peptide 1] | 100 |
| Ac-Arg-Phe-Met-Trp-Met-Arg-NH2 (Ac-RFMWMR-NH2) [Peptide 2] | 100 |
